≈ marks a conversion by molar mass, not a printed value.
How the values were obtained:
[1] = SD, 2 h, 2 μM
in vitro [2] = details: human, plasma, Plasma stability % Remaining
[3] = male, CD-1, mouse, 2 h, 2 μM
plasma proteins = details: 4 h, 2 μM, pH 7.4
in vivo [4] = details: DHP-1 knockout, mouse, sc, 300 mg/kg
physchem [5] = type: physicochemical; details: thermodynamic from solid
Experimental: Compounds were prepared at 1 mg/mL and left overnight at room temperature with stirring in phosphate buffer, 50 mM, at pH 7.4 or in 0.1 N HCl at pH 1. After separation of the soluble fraction by centrifugation, samples were filtered onto a polytetrafluoroethylene […] filter (Millipore) and then analyzed by HPLC.

in vitro [6] = details: human, plasma, pH 7.4, % bound to plasma
in vitro [7] = details: monkey, plasma
CYP1A2 = type: in vitro ADME; details: human, hepatocytes, 3 µM
Experimental: (§1) Metabolic stability and induction of human hepatocytes were performed as previously described.[71]

CYP3A5 = type: in vitro ADME; details: human, hepatocytes, 3 µM
Experimental: as §1

CYP2B6 = type: in vitro ADME; details: human, hepatocytes, 3 µM
Experimental: as §1

S. aureus = test: Microbial spectrum, S. aureus; type: cell-based, Staphylococcus aureus
wild-type Mtb H37Rv = type: in vivo, 129sv DHP-1 knockout mice
physchem [8] = details: simulated gi fluid, pH 1.2
[9] = 2 h, 2 μM
in vitro [10] = details: SD, rat, plasma, Plasma stability % Remaining
in vivo [11] = details: female, CD-1, mouse
[12] = Cytotoxicity against HepG2 cells (CellTiter-Glo); type: cell-based, human; details: human, HepG2 cells
Experimental: (§2) Compounds were tested for cytotoxicity against HepG2 cells as previously described.[48],[69],[70] Briefly, cells were exposed to compounds for 48–72 h, and viability was measured using CellTiter-Glo (Promega).

HepG2 cells = test: Cytotoxicity against HepG2 cells (CellTiter-Glo); type: cell-based, human; details: Table S4
Experimental: as §2

in vitro [13] = details: SD, rat, plasma, pH 7.4, % bound to plasma

With `O=C(Cc1ccc(C2=NCCN2)cc1)N[C@@H]1C(=O)N2C(C(=O)O)=C(CSc3nncs3)CS[C@H]12` [TBBL-0000316] the “Plasma stability % Remaining, Rat” value [1] was 86%, the remaining at 2 h, 2 μM (in vitro [2]) was 86.1% and the “Plasma stability % Remaining, Mouse” value [3] was 89%. The “% bound to plasma, CD-1 Mouse” value (plasma proteins) was 18%, the AUC(0-t) (in vivo [4]) was 60200 ± 11400 ng·h/mL and the Cmax (in vivo [4]) was 28700 ± 866 ng/mL. It also gave a Tmax (in vivo [4]) of 60 to 120 min, a solubility (physchem [5]; pH 1, simulated gastric fluid) of 402 µg/mL (≈ 778 µM) and a solubility (physchem [5]; pH 7.4, aqueous buffer) of over 1000 µg/mL. The fraction unbound at 4 h, 2 μM (in vitro [6]) was 0.619, the remaining at 2 h, 2 μM (in vitro [7]) was 114% and the “induction of expression of CYP1A2” value (CYP1A2) was under 2 fold. For the same compound, the “induction of expression of CYP3A5” value (CYP3A5) was under 2 fold, the “induction of expression of CYP2B6” value (CYP2B6) was under 2 fold and the MIC90 (S. aureus; Staphylococcus aureus, S. aureus, with 4 μg/mL clavulanate) was 0.86 µM. For the same compound, the S.aureus R + CLAV (MIC90) (S. aureus; clavulanate 4 μg/mL, Table S4) was 0.9 µM, the “Log10 CFU per mouse (lungs), Mean” value (wild-type Mtb H37Rv; 50 mg/kg sc bid + clavulanate 100 mg/kg po bid, days 9-15, lungs day 16, untreated day 16 mean 9.1) was 8.2 Log10 CFU and the “reduction of lung CFU compared to untreated control mice” value (wild-type Mtb H37Rv; mouse, in vivo) was 0.9 log10. For the same compound, the remaining at 1 h, 10 μM (physchem [8]) was 83.7%, the remaining at 24 h, 10 μM (physchem [8]) was 0.45% and the “Plasma stability % Remaining, Human” value [9] was 86%. It also gave a remaining at 2 h, 2 μM (in vitro [10]) of 85.9%, an AUC(0-t) (in vivo [11]; iv, 5 mg/kg) of 37100 ng·h/mL and a Vd (in vivo [11]; iv, 5 mg/kg) of 0.11 L/kg. It also gave a clearance (in vivo [11]; iv, 5 mg/kg) of 2.25 mL/min/kg, a half-life (in vivo [11]; iv, 5 mg/kg) of 34.8 min and a k el (in vivo [11]; iv, 5 mg/kg) of 0.000333 s⁻¹. For the same compound, the AUC(0-t) (in vivo [11]; po, 25 mg/kg) was 542 ng·h/mL, the bioavailability (in vivo [11]; po, 25 mg/kg) was 0.3% and the IC50 [12] was over 100 µM. The HepG2 LD50 (HepG2 cells) was over 100 µM and the fraction unbound at 4 h, 2 μM (in vitro [13]) was 0.378.
